Measurements reported in patent publication US20240374564A1, “NOVEL SEROTONIN DERIVATIVES AND THEIR USES FOR TREATING IRON-ASSOCIATED DISORDERS” (priority 2021, published 2024).

What was measured:
Hbb^Th1/th1 mice [1] = assay: Model 1 Hbb^Th1/th1 mice, first round: red blood cells production and iron overload; type: in vivo, mouse; conditions: for RBC count / hemoglobin / hematocrit contents: Ip injection; for RBC count: day 1 to 5, FIG. 1A; for hemoglobin: day 1 to 5, FIG. 1B; for hematocrit contents: day 1 to 5, FIG. 1C; for iron content in bone marrow / iron content in spleen: day 5 after sacrifice, FIG. 1D
Excerpt: (§1) Hbb^th1/th1 mice carry a 3.7-kb homozygous spontaneous deletion that eliminates the Hemoglobin Subunit Beta (HBB) gene and 2 kb of the 5′ flanking region, including the promoter. On the basis of genetic and hematological criteria, these mice constitute the first animal model of beta-thalassemia.
(§2) Mouse models Hbb^Th1/Th1 with ineffective erythropoiesis and iron overload received intraperitoneal (Ip) injection of A1 or A3 derivatives starting on day 0.
(§3) In a first round of experiments, a complete red blood cells count (RBC) was achieved on day 1, day 2 and day 5.
(§4) On day 5, the animals were sacrificed and histology of their organs and iron measurement in organs was carried out.

Hbb^Th1/th1 mice [2] = assay: Model 1 Hbb^Th1/th1 mice, second round: FACS, RBC, body iron, urinary ferritin; type: in vivo, mouse; design: condition of the mice compared with control: dose or concentration left out as unconfirmed
Excerpt: as §1, §2
(§5) In a second round of experiments, a complete red blood cells count (RBC) was achieved on day 2 day 5, day 10, day 15, day 20, day 25 and day 30. 4 mice were sacrificed on day 5 and every 5 days afterward for toxicity tests, Flow Cytometry Analysis and FACS (fluorescence-activated single cell sorting) essentially on bone marrow and spleen, biochemical analysis, iron status (organs, serum and urines), and histology.
ProE and Ebaso are part of phases I-II, EBaso and LBaso are part of phases III-IVa, Poly and Ortho are part of phases IVb-V of cells differentiation. The mature stage is also called “acido”.

Tph1 KO mice [3] = assay: Model 2 Tph1 KO mice, first round: red blood cells production and iron overload; type: in vivo, mouse; conditions: for anemic phenotype / RBC count / hemoglobin / hematocrit contents / heme content in red blood cells / mean cellular volume (MCV): Ip injection; for RBC count: day 1 to 5, FIG. 2A; for hemoglobin: day 1 to 5, FIG. 2B; for hematocrit contents: day 1 to 5, FIG. 2C; for heme content in red blood cells: day 1 to 5, FIG. 2D; for mean cellular volume (MCV): day 1 to 5, FIG. 2E; for iron content in spleen / iron content in bone marrow: day 5 after sacrifice; for iron content in spleen: FIG. 2F; for iron content in bone marrow: FIG. 2G
Excerpt: (§6) This model is a peripheral serotonin deficient mice. It is a mouse model of low risk myelodysplastic syndrome, with ineffective erythropoiesis, light anemia, iron overload (spleen), abnormal red blood cells and apoptosis of proerythroblasts (see Côté et al., PNAS, 2003, 100 (23), 13525-13530).
(§7) Mouse models Tph1 KO with ineffective erythropoiesis and iron overload received intraperitoneal (Ip) injection of A1, A3, A4 derivatives or serotonin starting on day 0.
as §3, §4

Tph1 KO mice [4] = assay: Model 2 Tph1 KO mice, second round: iron distribution, FACS, ferritin; type: in vivo, mouse; design: condition of the mice compared with controls: dose or concentration left out as unconfirmed
Excerpt: as §6, §7, §5

Hamp KO mice = assay: Model 3 Hamp KO mice: iron overload; type: in vivo, mouse
Excerpt: Hepcidin, encoded by the HAMP gene, is the main regulator of iron homeostasis, and its expression is tightly regulated by signals including iron levels, erythropoietic activity, hypoxia, and inflammation.
It is a mouse model of hemochromatosis. Hepcidin deficient mice progressively develop multivisceral iron overload; plasma iron overcomes transferrin binding capacity, and nontransferrin-bound iron accumulates in various tissues including pancreas and heart (see Nicolas et al., PNAS 2001, 98 (15), 8780-8785).
Mouse model of iron overload without ineffective erythropoiesis (Hamp KO) received intraperitoneal (Ip) injection of A3 derivatives or serotonin starting on day 0.
as §4

[5] = test system: cells from beta-thalassemic patients; assay: FACS analysis in cells from beta-thalassemic patients; type: cell-based, human; conditions: cells from beta-thalassemic patients (n=3), FIG. 8D
Procedure: In vitro tests were carried out on cells derived from blood of β-thalassemic patients before transfusion

[6] = test system: skin fibroblasts from FA/BPAN patients; assay: Western blot analysis of skin fibroblasts from FA/BPAN patients treated with ferric ammonium citrate; type: cell-based, human; conditions: iron overload (FAC 100 uM)
Procedure: Further tests were carried out on skin fibroblasts from Friedreich ataxia and Beta-propeller protein-associated neurodegeneration (BPAN) patients, to assess in particular the effects of the compounds of the invention on iron accumulation in both the cytosol and mitochondria of said fibroblasts.
Cultured skin fibroblasts from Friedreich ataxia patients were used as described in Petit et al., Blood. 2021; 137 (15): 2090-2102 and Ingrassia et al., Front Genet 2017 Feb. 17; 8:18.

[7] = Hbb^Th1/th1 mice, flow cytometry, day 13, vs PBS-treated mice
[8] = Hbb^th1/th1 mice, 21 days of injection, FIG. 5C
[9] = 5-HT deficient (Tph1 KO) mice, vs PBS

C#CCOc1ccc2[nH]cc(CCN(CC#C)CC#C)c2c1 [Derivative A1, N-(prop-2-yn-1-yl)-N-(2-(5-(prop-2-yn-1-yloxy)-1H-indol-3-yl)ethyl) prop-2-yn-1-amine]
RBC count (Hbb^Th1/th1 mice [1]): improved
hemoglobin (Hbb^Th1/th1 mice [1]): improved
hematocrit contents (Hbb^Th1/th1 mice [1]): improved
iron content in bone marrow (Hbb^Th1/th1 mice [1]): relocate into cells of the bone marrow
iron content in spleen (Hbb^Th1/th1 mice [1]): decreased the iron overload in spleen

C#CCNCCc1c[nH]c2ccc(O)cc12.O=CO [Derivative A3, N-(2-(5-hydroxy-1H-indol-3-yl)ethyl)prop-2-yn-1-aminium formate]
RBC count (Hbb^Th1/th1 mice [1]): improved
hemoglobin (Hbb^Th1/th1 mice [1]): improved
hematocrit contents (Hbb^Th1/th1 mice [1]): improved
iron content in bone marrow (Hbb^Th1/th1 mice [1]): relocate into cells of the bone marrow
iron content in spleen (Hbb^Th1/th1 mice [1]): decreased the iron overload in spleen
cell survival (Hbb^Th1/th1 mice [2]; Hbb^Th1/Th1 mice, vs PBS): increased
erythroid expansion (Hbb^Th1/th1 mice [2]; Hbb^Th1/Th1 mice, vs PBS): restored
maturation arrest (Hbb^Th1/th1 mice [2]; Hbb^Th1/Th1 mice, vs PBS): stopped
condition of the mice compared with control (Hbb^Th1/th1 mice [2]; Hbb^Th1/th1 mice, Ip for 13 and 21 days, vs PBS): improved condition of the mice
pathological features of β-thalassemia (Hbb^Th1/th1 mice [2]; Hbb^Th1/th1 mice, conclusion from flow cytometry): corrects pathological features of β-thalassemia
urinary ferritin levels (Hbb^Th1/th1 mice [2]; Hbb^Th1/th1 mice, day 13, vs control mice, FIG. 5D): significant increase
percentage Ter-119+CD71+FSC cells (III-IVa) in bone marrow (Hbb^Th1/th1 mice [2]; [7]): decrease
percentage and absolute number of Ter-119+CD71−FSC cells (IVb-V) in bone marrow (Hbb^Th1/th1 mice [2]; [7]): increase
bone marrow expansion (Hbb^Th1/th1 mice [2]; Hbb^th1/th1 mice, 13 days of injection, FIG. 5A): correction of bone marrow expansion
iron overload (total body iron content) (Hbb^Th1/th1 mice [2]; Hbb^th1/th1 mice, 13 days of injection, FIG. 5B): decrease in iron overload
ratio immature/mature erythroblasts (Ratio Poly/Acido) (Hbb^Th1/th1 mice [2]; Hbb^th1/th1 mice, 21 days of injection): restores
iron overload (total body iron content) (Hbb^Th1/th1 mice [2]; [8]): decrease iron overload
number of erythroid progenitors (Hbb^Th1/th1 mice [2]; [8]): Decrease
number of mature erythroid cells (Hbb^Th1/th1 mice [2]; [8]): Increase
anemic phenotype (Tph1 KO mice [3]): ameliorate the anemic phenotype
RBC count (Tph1 KO mice [3]): improved
hemoglobin (Tph1 KO mice [3]): improved
hematocrit contents (Tph1 KO mice [3]): improved
heme content in red blood cells (Tph1 KO mice [3]): improved
mean cellular volume (MCV) (Tph1 KO mice [3]): decrease
iron content in spleen (Tph1 KO mice [3]): mobilized out of the spleen
iron content in bone marrow (Tph1 KO mice [3]): relocate into cells of the bone marrow
cell blood survival (Tph1 KO mice [4]; [9]): increased
erythroid expansion (Tph1 KO mice [4]; [9]): restored
cellular iron misdistribution (Tph1 KO mice [4]; Tph1 KO mice, 5 days of treatment, vs non-treated, FIG. 7A): corrects cellular iron misdistribution
cellular iron misdistribution (Tph1 KO mice [4]; Tph1 KO mice, 21 days of IP injection, vs PBS, FIG. 7B): corrects cellular iron misdistribution
pathological features of ineffective erythropoiesis (Tph1 KO mice [4]; Tph1 KO mice, 21 days, FIG. 7C): corrects
iron overload (ferritin level) (Tph1 KO mice [4]; Tph1 KO mice, 21 days, bone marrow, FIG. 7C): decrease iron overload
condition of the mice compared with controls (Tph1 KO mice [4]; Tph1 KO mice, IP for 5 and 21 days): improved condition of the mice
iron level in the liver (Hamp KO mice; day 5, FIG. 3B): reduced
differentiation of erythroid progenitors [5]: increases differentiation of erythroid progenitors
immature/mature ratio [5]: decrease
increased p62 expression ([6]; FIG. 9B): ~60%
decreased FTH expression ([6]; FIGS. 9A-9B): ~40%

C#CCN(CC#C)CCc1c[nH]c2ccc(O)cc12 [Derivative A4, 3-(2-(di(prop-2-yn-1-yl)amino)ethyl)-1H-indol-5-ol]
anemic phenotype (Tph1 KO mice [3]): ameliorate the anemic phenotype
RBC count (Tph1 KO mice [3]): improved
hemoglobin (Tph1 KO mice [3]): improved
hematocrit contents (Tph1 KO mice [3]): improved
heme content in red blood cells (Tph1 KO mice [3]): improved
mean cellular volume (MCV) (Tph1 KO mice [3]): decrease
iron content in spleen (Tph1 KO mice [3]): mobilized out of the spleen
iron content in bone marrow (Tph1 KO mice [3]): relocate into cells of the bone marrow

NCCc1c[nH]c2ccc(O)cc12 [serotonin, 5-hydroxytryptamine]
anemic phenotype (Tph1 KO mice [3]): ameliorate the anemic phenotype
RBC count (Tph1 KO mice [3]): improved
hemoglobin (Tph1 KO mice [3]): improved
hematocrit contents (Tph1 KO mice [3]): improved
heme content in red blood cells (Tph1 KO mice [3]): improved
mean cellular volume (MCV) (Tph1 KO mice [3]): decrease
iron content in spleen (Tph1 KO mice [3]): mobilized out of the spleen
iron content in bone marrow (Tph1 KO mice [3]): relocate into cells of the bone marrow
iron level in the blood (Hamp KO mice; day 5, FIG. 3A): reduced
transferrin saturation (Hamp KO mice; day 5, FIG. 3C): reduced
